Reference: the kinase profiling compilation of Christmann-Franck et al. (2016)
Where “and” joins values, the source holds several entries; their conditions need not be identical. Equal values may be shown once.

Assays:
Assay in all cases: KINOMEscan competition binding
Conditions in all cases: compound 10.0 µM
ABL2 (human) = ABL2 (human) (UniProt P42684)
BMPR1A (human) = BMPR1A (human) (UniProt P36894)
CAMK1D (human) = CAMK1D (human) (UniProt Q8IU85)
CAMK2A (human) = CAMK2A (human) (UniProt Q9UQM7)
CAMK2G (human) = CAMK2G (human) (UniProt Q13555)
CAMKK1 (human) = CAMKK1 (human) (UniProt Q8N5S9)
CDK17 (human) = CDK17 (human) (UniProt Q00537)
CDK3 (human) = CDK3 (human) (UniProt Q00526)
DAPK3 (human) = DAPK3 (human) (UniProt O43293)
[1] = tested on: EGFR (human), P00533 [G719C]
EPHA7 (human) = EPHA7 (human) (UniProt Q15375)
EPHB1 (human) = EPHB1 (human) (UniProt P54762)
FGFR3 (human) = FGFR3 (human) (UniProt P22607)
[2] = tested on: FLT3 (human), P36888 [D835Y]
HIPK3 (human) = HIPK3 (human) (UniProt Q9H422)
IKBKB (human) = IKBKB (human) (UniProt O14920)
MAP3K13 (human) = MAP3K13 (human) (UniProt O43283)
MAP3K5 (human) = MAP3K5 (human) (UniProt Q99683)
MAP4K4 (human) = MAP4K4 (human) (UniProt O95819)
MARK2 (human) = MARK2 (human) (UniProt Q7KZI7)
MERTK (human) = MERTK (human) (UniProt Q12866)
NEK2 (human) = NEK2 (human) (UniProt P51955)
NEK4 (human) = NEK4 (human) (UniProt P51957)
NEK6 (human) = NEK6 (human) (UniProt Q9HC98)
OXSR1 (human) = OXSR1 (human) (UniProt O95747)
PDGFRA (human) = PDGFRA (human) (UniProt P16234)
PIK3CD (human) = PIK3CD (human) (UniProt O00329)
PKMYT1 (human) = PKMYT1 (human) (UniProt Q99640)
PRKCE (human) = PRKCE (human) (UniProt Q02156)
PRKCH (human) = PRKCH (human) (UniProt P24723)
RET (human) = RET (human) (UniProt P07949)
RIPK4 (human) = RIPK4 (human) (UniProt P57078)
ROCK1 (human) = ROCK1 (human) (UniProt Q13464)
SIK2 (human) = SIK2 (human) (UniProt Q9H0K1)
SLK (human) = SLK (human) (UniProt Q9H2G2)
SNRK (human) = SNRK (human) (UniProt Q9NRH2)
SRPK1 (human) = SRPK1 (human) (UniProt Q96SB4)
STK17A (human) = STK17A (human) (UniProt Q9UEE5)
TGFBR1 (human) = TGFBR1 (human) (UniProt P36897)
TXK (human) = TXK (human) (UniProt P42681)
Chain of TXK (human) (P42681 whole entry, looked up): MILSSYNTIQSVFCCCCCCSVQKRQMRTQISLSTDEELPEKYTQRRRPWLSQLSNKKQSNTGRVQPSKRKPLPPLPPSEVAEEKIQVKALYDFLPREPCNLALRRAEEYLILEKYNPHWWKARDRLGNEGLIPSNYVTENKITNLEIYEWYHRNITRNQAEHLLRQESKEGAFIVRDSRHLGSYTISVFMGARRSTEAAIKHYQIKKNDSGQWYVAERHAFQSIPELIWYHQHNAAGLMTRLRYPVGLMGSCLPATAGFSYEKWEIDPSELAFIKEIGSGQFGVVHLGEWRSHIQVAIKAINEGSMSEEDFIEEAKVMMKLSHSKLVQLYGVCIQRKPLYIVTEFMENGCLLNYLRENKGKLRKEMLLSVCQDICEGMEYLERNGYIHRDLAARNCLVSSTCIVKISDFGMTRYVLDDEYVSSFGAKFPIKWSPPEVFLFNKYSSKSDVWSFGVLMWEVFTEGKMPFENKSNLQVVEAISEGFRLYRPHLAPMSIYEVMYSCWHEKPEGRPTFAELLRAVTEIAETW

Chain of MAP4K4 (human) (O95819 whole entry, looked up): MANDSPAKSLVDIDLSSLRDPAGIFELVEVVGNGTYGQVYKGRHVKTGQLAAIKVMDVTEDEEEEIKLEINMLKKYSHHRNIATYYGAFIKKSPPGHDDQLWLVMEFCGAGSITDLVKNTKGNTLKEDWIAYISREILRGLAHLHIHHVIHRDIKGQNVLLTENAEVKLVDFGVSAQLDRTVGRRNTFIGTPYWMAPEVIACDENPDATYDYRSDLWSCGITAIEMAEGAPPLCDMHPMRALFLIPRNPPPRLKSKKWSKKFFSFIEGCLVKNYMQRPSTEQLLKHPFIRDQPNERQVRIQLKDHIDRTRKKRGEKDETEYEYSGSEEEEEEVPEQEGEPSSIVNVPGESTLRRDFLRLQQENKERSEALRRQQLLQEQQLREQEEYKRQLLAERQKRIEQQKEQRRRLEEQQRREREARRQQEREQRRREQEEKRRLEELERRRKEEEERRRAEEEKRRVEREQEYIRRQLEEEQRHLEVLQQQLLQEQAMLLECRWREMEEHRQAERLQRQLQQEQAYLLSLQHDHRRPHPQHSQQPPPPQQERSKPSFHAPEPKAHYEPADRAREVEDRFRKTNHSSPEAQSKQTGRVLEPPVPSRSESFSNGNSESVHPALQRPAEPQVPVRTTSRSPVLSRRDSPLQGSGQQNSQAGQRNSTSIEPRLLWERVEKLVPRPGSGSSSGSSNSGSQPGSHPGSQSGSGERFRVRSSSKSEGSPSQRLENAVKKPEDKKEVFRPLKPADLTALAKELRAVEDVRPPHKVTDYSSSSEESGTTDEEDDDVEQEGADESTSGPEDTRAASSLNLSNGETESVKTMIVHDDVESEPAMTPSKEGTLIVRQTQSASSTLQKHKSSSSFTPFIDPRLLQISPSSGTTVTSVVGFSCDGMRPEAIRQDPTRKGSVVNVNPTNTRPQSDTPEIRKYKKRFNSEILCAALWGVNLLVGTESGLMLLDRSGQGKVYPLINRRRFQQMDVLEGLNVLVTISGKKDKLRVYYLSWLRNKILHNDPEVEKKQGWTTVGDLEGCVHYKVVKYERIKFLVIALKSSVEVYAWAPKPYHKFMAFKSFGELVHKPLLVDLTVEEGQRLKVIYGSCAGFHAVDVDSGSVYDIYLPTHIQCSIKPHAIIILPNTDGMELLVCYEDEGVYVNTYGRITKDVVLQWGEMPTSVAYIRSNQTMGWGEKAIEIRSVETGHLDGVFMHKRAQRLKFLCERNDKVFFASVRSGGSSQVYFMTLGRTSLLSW
Chain of DAPK3 (human) (O43293 whole entry, looked up): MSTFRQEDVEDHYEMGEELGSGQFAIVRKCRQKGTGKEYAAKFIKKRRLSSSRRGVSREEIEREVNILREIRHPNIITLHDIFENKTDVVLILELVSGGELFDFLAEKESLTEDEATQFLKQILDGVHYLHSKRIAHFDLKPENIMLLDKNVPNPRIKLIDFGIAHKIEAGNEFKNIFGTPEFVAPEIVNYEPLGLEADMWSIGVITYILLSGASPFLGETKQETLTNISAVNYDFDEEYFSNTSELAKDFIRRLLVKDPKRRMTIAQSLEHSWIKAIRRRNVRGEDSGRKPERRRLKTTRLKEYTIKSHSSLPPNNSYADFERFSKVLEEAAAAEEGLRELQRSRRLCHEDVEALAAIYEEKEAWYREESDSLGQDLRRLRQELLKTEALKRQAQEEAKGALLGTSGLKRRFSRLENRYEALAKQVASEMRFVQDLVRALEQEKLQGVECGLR
Chain of HIPK3 (human) (Q9H422 whole entry, looked up): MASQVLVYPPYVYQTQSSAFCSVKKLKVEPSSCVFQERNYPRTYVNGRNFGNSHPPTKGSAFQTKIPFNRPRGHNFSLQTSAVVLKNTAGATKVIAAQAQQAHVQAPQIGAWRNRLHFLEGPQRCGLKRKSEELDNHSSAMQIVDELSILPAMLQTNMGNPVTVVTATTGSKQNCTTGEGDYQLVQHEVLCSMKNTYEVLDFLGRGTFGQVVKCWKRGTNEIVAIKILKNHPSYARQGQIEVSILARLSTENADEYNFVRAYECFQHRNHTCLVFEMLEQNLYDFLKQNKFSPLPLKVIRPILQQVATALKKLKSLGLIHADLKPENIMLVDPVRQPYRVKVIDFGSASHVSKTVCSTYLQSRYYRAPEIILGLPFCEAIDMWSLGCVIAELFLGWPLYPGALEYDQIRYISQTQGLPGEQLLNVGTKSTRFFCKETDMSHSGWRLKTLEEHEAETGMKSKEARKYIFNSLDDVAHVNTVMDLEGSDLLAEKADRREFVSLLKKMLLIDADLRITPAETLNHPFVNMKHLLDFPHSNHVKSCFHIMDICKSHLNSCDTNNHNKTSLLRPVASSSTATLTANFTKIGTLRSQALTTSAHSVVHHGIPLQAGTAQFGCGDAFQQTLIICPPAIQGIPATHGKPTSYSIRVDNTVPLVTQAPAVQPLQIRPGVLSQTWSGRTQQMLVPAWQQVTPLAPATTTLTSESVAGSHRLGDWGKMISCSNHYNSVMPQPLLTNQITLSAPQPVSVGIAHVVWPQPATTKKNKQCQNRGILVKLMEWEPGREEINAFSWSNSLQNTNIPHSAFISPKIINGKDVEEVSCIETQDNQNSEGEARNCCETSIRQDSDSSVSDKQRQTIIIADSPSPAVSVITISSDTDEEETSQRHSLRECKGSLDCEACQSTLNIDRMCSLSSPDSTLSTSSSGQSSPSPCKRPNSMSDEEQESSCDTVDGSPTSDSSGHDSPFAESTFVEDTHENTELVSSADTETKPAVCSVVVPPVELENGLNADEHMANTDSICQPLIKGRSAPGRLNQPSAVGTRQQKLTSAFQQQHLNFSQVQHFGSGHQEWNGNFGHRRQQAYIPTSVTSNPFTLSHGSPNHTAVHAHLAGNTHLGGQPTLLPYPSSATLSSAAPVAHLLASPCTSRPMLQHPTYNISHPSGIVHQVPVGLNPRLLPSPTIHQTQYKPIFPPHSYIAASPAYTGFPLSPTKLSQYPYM
Chain of STK17A (human) (Q9UEE5 whole entry, looked up): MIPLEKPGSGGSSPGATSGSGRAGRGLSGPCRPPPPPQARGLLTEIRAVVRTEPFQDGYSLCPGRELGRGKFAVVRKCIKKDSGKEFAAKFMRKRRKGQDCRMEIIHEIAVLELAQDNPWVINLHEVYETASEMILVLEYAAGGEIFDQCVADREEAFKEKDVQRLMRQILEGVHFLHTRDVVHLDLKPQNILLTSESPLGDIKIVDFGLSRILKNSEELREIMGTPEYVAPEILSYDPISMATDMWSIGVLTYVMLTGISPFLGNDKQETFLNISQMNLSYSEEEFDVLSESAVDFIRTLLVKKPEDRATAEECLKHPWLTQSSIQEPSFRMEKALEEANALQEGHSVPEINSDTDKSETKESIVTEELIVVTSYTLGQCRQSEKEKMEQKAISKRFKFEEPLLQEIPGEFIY
Chain of RIPK4 (human) (P57078 whole entry, looked up): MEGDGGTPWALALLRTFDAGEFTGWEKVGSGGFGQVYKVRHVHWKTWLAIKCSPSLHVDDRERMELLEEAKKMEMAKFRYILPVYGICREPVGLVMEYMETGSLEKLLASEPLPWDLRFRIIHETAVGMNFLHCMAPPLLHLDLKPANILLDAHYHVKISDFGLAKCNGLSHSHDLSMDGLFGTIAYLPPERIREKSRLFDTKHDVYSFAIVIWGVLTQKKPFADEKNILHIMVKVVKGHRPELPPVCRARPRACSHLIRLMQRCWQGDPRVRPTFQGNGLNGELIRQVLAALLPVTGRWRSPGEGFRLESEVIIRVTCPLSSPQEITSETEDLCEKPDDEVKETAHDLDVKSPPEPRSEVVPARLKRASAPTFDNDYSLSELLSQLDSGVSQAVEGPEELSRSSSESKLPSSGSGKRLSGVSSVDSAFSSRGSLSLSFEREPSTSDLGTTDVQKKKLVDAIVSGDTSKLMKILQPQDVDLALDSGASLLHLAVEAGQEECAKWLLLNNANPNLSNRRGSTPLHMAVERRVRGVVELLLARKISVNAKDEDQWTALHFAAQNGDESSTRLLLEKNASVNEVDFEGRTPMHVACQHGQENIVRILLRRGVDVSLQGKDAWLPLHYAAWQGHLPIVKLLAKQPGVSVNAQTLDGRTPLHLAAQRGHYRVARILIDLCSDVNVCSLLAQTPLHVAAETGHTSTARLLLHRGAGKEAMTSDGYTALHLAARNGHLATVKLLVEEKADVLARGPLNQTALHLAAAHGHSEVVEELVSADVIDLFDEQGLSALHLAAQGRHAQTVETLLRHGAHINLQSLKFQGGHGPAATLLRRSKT
Chain of CDK3 (human) (Q00526 whole entry, looked up): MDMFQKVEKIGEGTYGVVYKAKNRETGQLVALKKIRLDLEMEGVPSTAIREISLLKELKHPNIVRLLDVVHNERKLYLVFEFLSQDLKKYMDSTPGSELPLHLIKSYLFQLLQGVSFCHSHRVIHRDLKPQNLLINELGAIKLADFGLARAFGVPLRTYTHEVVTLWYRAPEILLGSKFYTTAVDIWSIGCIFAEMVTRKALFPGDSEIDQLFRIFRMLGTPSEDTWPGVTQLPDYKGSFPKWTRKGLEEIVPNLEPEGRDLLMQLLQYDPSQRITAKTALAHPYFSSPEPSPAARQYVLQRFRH

SMILES	kinase still bound, per cent of control (ABL2 (human)) [%]	kinase still bound, per cent of control (BMPR1A (human)) [%]	kinase still bound, per cent of control (CAMK1D (human)) [%]	kinase still bound, per cent of control (CAMK2A (human)) [%]	kinase still bound, per cent of control (CAMK2G (human)) [%]	kinase still bound, per cent of control (CAMKK1 (human)) [%]	kinase still bound, per cent of control (CDK17 (human)) [%]	kinase still bound, per cent of control (CDK3 (human)) [%]	kinase still bound, per cent of control (DAPK3 (human)) [%]	kinase still bound, per cent of control [1] [%]	kinase still bound, per cent of control (EPHA7 (human)) [%]	kinase still bound, per cent of control (EPHB1 (human)) [%]	kinase still bound, per cent of control (FGFR3 (human)) [%]	kinase still bound, per cent of control [2] [%]	kinase still bound, per cent of control (HIPK3 (human)) [%]	kinase still bound, per cent of control (IKBKB (human)) [%]	kinase still bound, per cent of control (MAP3K13 (human)) [%]	kinase still bound, per cent of control (MAP3K5 (human)) [%]	kinase still bound, per cent of control (MAP4K4 (human))	kinase still bound, per cent of control (MARK2 (human)) [%]	also measured
C=CC(=O)Nc1ccc(C(=O)c2sc(Nc3ccc(N4CCN(C)CC4)cc3OC)nc2N)cc1	100	91	0.55	1.2	1.6	3.3	78	88	2.6	3	95	98	78	23	42	85	100	100	38%	78	kinase still bound, per cent of control (MERTK (human)): 100%; kinase still bound, per cent of control (NEK2 (human)): 100%; kinase still bound, per cent of control (NEK4 (human)): 97%; kinase still bound, per cent of control (NEK6 (human)): 73%; kinase still bound, per cent of control (OXSR1 (human)): 10%; kinase still bound, per cent of control (PDGFRA (human)): 100%; kinase still bound, per cent of control (PIK3CD (human)): 100%; kinase still bound, per cent of control (PKMYT1 (human)): 96%; kinase still bound, per cent of control (PRKCE (human)): 81%; kinase still bound, per cent of control (PRKCH (human)): 100%; kinase still bound, per cent of control (RET (human)): 100%; kinase still bound, per cent of control (RIPK4 (human)): 89%; kinase still bound, per cent of control (ROCK1 (human)): 42%; kinase still bound, per cent of control (SIK2 (human)): 72%; kinase still bound, per cent of control (SLK (human)): 32%; kinase still bound, per cent of control (SNRK (human)): 0.2%; kinase still bound, per cent of control (SRPK1 (human)): 71%; kinase still bound, per cent of control (STK17A (human)): 100%; kinase still bound, per cent of control (TGFBR1 (human)): 96%; kinase still bound, per cent of control (TXK (human)): 100%
CNC(=O)Nc1ccc(-c2nc(N3CC4CCC(C3)O4)c3cnn(C4CCC5(CC4)OCCO5)c3n2)cc1	84	93	95	100	100	100	100	99	100	80	87	90	83	99	42	79	82	85	85%	100	kinase still bound, per cent of control (MERTK (human)): 87%; kinase still bound, per cent of control (NEK2 (human)): 72%; kinase still bound, per cent of control (NEK4 (human)): 82%; kinase still bound, per cent of control (NEK6 (human)): 90%; kinase still bound, per cent of control (OXSR1 (human)): 100%; kinase still bound, per cent of control (PDGFRA (human)): 80%; kinase still bound, per cent of control (PIK3CD (human)): 5.7%; kinase still bound, per cent of control (PKMYT1 (human)): 75%; kinase still bound, per cent of control (PRKCE (human)): 100%; kinase still bound, per cent of control (PRKCH (human)): 91%; kinase still bound, per cent of control (RET (human)): 91%; kinase still bound, per cent of control (RIPK4 (human)): 98%; kinase still bound, per cent of control (ROCK1 (human)): 100%; kinase still bound, per cent of control (SIK2 (human)): 97%; kinase still bound, per cent of control (SLK (human)): 100%; kinase still bound, per cent of control (SNRK (human)): 100%; kinase still bound, per cent of control (SRPK1 (human)): 100%; kinase still bound, per cent of control (STK17A (human)): 100%; kinase still bound, per cent of control (TGFBR1 (human)): 100%; kinase still bound, per cent of control (TXK (human)): 94%
O=c1[nH]c2ccccc2n1C1CCN(Cc2ccc(-c3nc4cc5[nH]cnc5cc4nc3-c3ccccc3)cc2)CC1	100	77	76	98	100	100	100	100	85	53	100	100	92	51	87	79	100	83	80% and 100%	83	kinase still bound, per cent of control (MERTK (human)): 95%; kinase still bound, per cent of control (NEK2 (human)): 100%; kinase still bound, per cent of control (NEK4 (human)): 93%; kinase still bound, per cent of control (NEK6 (human)): 100%; kinase still bound, per cent of control (OXSR1 (human)): 81%; kinase still bound, per cent of control (PDGFRA (human)): 83%; kinase still bound, per cent of control (PIK3CD (human)): 51%; kinase still bound, per cent of control (PKMYT1 (human)): 94%; kinase still bound, per cent of control (PRKCE (human)): 100%; kinase still bound, per cent of control (PRKCH (human)): 69%; kinase still bound, per cent of control (RET (human)): 76%; kinase still bound, per cent of control (RIPK4 (human)): 87%; kinase still bound, per cent of control (ROCK1 (human)): 66%; kinase still bound, per cent of control (SIK2 (human)): 85%; kinase still bound, per cent of control (SLK (human)): 59%; kinase still bound, per cent of control (SNRK (human)): 91%; kinase still bound, per cent of control (SRPK1 (human)): 99%; kinase still bound, per cent of control (STK17A (human)): 100%; kinase still bound, per cent of control (TGFBR1 (human)): 100%; kinase still bound, per cent of control (TXK (human)): 87%
